IC50 data for 26 compounds are collected here from patent US20250034125A1, “COMPOUNDS AND USES THEREOF” (JANSSEN PHARMACEUTICA NV, priority 2019, published 2025).

pIC50: −log10 of the molar value. Read-outs that look alike come from different tables or passages of the source.

In one experiment the target is T1, SCD1 (Homo sapiens, UniProt O00767).
T1 construct: host or cells: Saccharomyces cerevisiae ole1Δ strain (W303 pdr1Δ pdr3Δ background), plasmid pRS316, TDH3 promoter
T1 sequence (O00767 1-359): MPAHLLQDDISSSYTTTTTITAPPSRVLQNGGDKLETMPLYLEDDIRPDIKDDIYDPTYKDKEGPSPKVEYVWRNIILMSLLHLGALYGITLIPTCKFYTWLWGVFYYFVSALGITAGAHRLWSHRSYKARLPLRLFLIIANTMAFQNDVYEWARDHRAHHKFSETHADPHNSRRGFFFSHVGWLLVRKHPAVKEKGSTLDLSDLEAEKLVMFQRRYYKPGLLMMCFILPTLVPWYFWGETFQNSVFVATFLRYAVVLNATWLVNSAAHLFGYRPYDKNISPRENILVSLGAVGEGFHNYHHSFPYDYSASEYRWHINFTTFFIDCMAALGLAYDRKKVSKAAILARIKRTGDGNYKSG
As to the kind of experiment: Growth inhibition of yeast (ole1Δ) expressing human SCD1 as the sole desaturase. It counts as cell-based.

A further experiment concerns the target T2, SCD5 (Homo sapiens, UniProt Q86SK9).
T2 construct: host or cells: Saccharomyces cerevisiae ole1Δ strain (W303 pdr1Δ pdr3Δ background), plasmid pRS316, TDH3 promoter
T2 sequence (Q86SK9 1-330): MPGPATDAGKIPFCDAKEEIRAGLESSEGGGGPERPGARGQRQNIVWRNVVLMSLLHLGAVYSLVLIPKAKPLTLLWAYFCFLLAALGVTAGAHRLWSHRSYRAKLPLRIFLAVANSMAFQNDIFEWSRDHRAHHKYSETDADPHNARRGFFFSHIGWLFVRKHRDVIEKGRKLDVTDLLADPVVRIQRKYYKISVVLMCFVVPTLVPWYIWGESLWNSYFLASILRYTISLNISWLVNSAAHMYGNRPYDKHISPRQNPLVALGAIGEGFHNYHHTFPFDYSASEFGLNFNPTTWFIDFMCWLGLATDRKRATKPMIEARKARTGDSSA
As to the kind of experiment: Growth inhibition of yeast (ole1Δ) expressing human SCD5 as the sole desaturase. It counts as cell-based.

Where [1] appears, read: yeast strain with SCD1 plasmid, OD600 growth read at 40 h, read-out: SCD1 IC50.
Where [2] appears, read: yeast strain with SCD5 plasmid, OD600 growth read at 40 h, read-out: SCD5 IC50.

`O=c1ccc(-c2noc(N3CCC(Cc4ccc(F)c(F)c4)CC3)n2)c[nH]1` [Compound 1]: the figures for the pIC50 on SCD1 (setting [1]) and on SCD5 (setting [2]) were 4.85 and 5.42, respectively.
Turning to `O=c1ccc(-c2noc(N3CCC(Cc4cc(F)cc(F)c4)CC3)n2)c[nH]1` [Compound 2], the negative logarithm of the IC50 (pIC50) on SCD1 (setting [1]) and on SCD5 (setting [2]) was less than 4.35 throughout.
Regarding `Cn1cc(NC(=O)N2CCC(Cc3cc(F)cc(F)c3)C2)ccc1=O` (stereo not drawn) [Compound 3, 3-(3,5-difluorobenzyl)-N-(1-methyl-6-oxo-1,6-dihydropyridin-3-yl)pyrrolidine-1-carboxamide], the pIC50 on SCD1 (setting [1]) is 4.95; on SCD5 (setting [2]), 4.68.
On to `Cn1cc(CC(=O)N2CCC(Cc3cccc(Cl)c3)CC2)ccc1=O` [Compound 4, 5-(2-(4-(3-chlorobenzyl)piperidin-1-yl)-2-oxoethyl)-1-methylpyridin-2(1H)-one], for which the negative logarithm of the IC50 (pIC50) at SCD1 (setting [1]) was less than 4.35; at SCD5 (setting [2]), 4.61.
Consider `Cn1cc(CC(=O)N2CCC(Oc3cccc(Cl)c3)CC2)ccc1=O` [Compound 5, 5-(2-(4-(3-chlorophenoxy)piperidin-1-yl)-2-oxoethyl)-1-methylpyridin-2(1H)-one], for which the pIC50 on SCD1 (setting [1]) and at SCD5 (setting [2]) was less than 4.35 each time.
In the case of `Cn1cc(NC(=O)N2CCC(Cc3ccc(F)c(F)c3)CC2)ccc1=O` [Compound 7], the negative logarithm of the IC50 (pIC50) at SCD1 (setting [1]) is less than 4.35; on SCD5 (setting [2]), 5.30.
Turning to `Cn1cc(NC(=O)N2CCC(Cc3cc(F)cc(Cl)c3)CC2)ccc1=O` [Compound 8, 4-(3-chloro-5-fluorobenzyl)-N-(1-methyl-6-oxo-1,6-dihydropyridin-3-yl)piperidine-1-carboxamide], the values for the pIC50 on SCD1 (setting [1]) and on SCD5 (setting [2]) were 5.63 and 6.08, respectively.
On to `Cn1cc(NC(=O)N2CCC(Cc3cc(F)ccc3F)CC2)ccc1=O` [Compound 10], for which the negative logarithm of the IC50 (pIC50) on SCD1 (setting [1]) and on SCD5 (setting [2]) was less than 4.35 throughout.
On to `Cn1cc(NC(=O)N2CCC(Nc3cc(F)cc(F)c3)CC2)ccc1=O` [Compound 11, 4-(3,5-difluorophenylamino)-N-(1-methyl-6-oxo-1,6-dihydropyridin-3-yl)piperidine-1-carboxamide], for which the pIC50 on SCD1 and at SCD5 was less than 4.35 throughout.
Turning to `Cn1cc(-c2nc(N3CCC(Oc4cc(F)cc(F)c4)CC3)no2)ccc1=O` [Compound 15, 5-(3-(4-(3,5-difluorophenoxy)piperidin-1-yl)-1,2,4-oxadiazol-5-yl)-1-methylpyridin-2(1H)-one], the pIC50 on SCD1 (setting [1]) was 4.91; on SCD5 (setting [2]), 6.07.
Consider `Cn1cc(-c2nc(N3CCC(Oc4cccc(F)c4Cl)CC3)no2)ccc1=O` [Compound 16, 5-(3-(4-(2-chloro-3-fluorophenoxy)piperidin-1-yl)-1,2,4-oxadiazol-5-yl)-1-methylpyridin-2(1H)-one], for which the pIC50 at SCD1 (setting [1]) is 6.46; on SCD5 (setting [2]), 6.23.
In the case of `Cn1cc(-c2nc(N3CCC(Cc4cc(F)cc(F)c4)CC3)no2)ccc1=O` [Compound 17, 5-(3-(4-(3,5-difluorobenzyl)piperidin-1-yl)-1,2,4-oxadiazol-5-yl)-1-methylpyridin-2(1H)-one], the negative-log IC50 (pIC50) at SCD1 (setting [1]) was 6.14; at SCD5 (setting [2]) it was 8.00.
The corresponding values for `Cn1cc(-c2nnc(N3CCC(Cc4cccc(F)c4)CC3)o2)ccc1=O` [Compound 18, 5-(5-(4-(3-fluorobenzyl)piperidin-1-yl)-1,3,4-oxadiazol-2-yl)-1-methylpyridin-2(1H)-one] are less than 4.35 and 5.71.
On to `Cn1cc(-c2nnc(N3CCC(Cc4cc(F)cc(F)c4)CC3)o2)ccc1=O` [Compound 19, 5-(5-(4-(3,5-difluorobenzyl)piperidin-1-yl)-1,3,4-oxadiazol-2-yl)-1-methylpyridin-2(1H)-one], for which the pIC50 at SCD1 (setting [1]) is 5.01; at SCD5 (setting [2]), 6.00.
On to `Cn1cc(-c2noc(N3CCC(Cc4ccc(F)c(F)c4)CC3)n2)ccc1=O` [Compound 20, 5-(5-(4-(3,4-difluorobenzyl)piperidin-1-yl)-1,2,4-oxadiazol-3-yl)-1-methylpyridin-2(1H)-one], for which the pIC50 at SCD1 (setting [1]) was 5.57; at SCD5 (setting [2]) it was 5.85.
The corresponding values for `Cn1cc(-c2noc(N3CCC(Cc4cc(F)cc(F)c4)CC3)n2)ccc1=O` [Compound 21, 5-(5-(4-(3,5-difluorobenzyl)piperidin-1-yl)-1,2,4-oxadiazol-3-yl)-1-methylpyridin-2(1H)-one] are 5.00 and 5.52.
On to `Cn1nc(NC(=O)N2CC(Cc3cccc(Cl)c3)C2)ccc1=O` [Compound 22, 3-(3-chlorobenzyl)-N-(1-methyl-6-oxo-1,6-dihydropyridazin-3-yl)azetidine-1-carboxamide], for which the negative logarithm of the IC50 (pIC50) on SCD1 (setting [1]) is 5.59; on SCD5 (setting [2]), 6.02.
For the compound `Cn1nc(NC(=O)N2CC(Oc3ccc(F)c(F)c3)C2)ccc1=O` [Compound 23, 3-(3,4-difluorophenoxy)-N-(1-methyl-6-oxo-1,6-dihydropyridazin-3-yl)azetidine-1-carboxamide], the figures for the negative-log IC50 (pIC50) at SCD1 (setting [1]) and at SCD5 (setting [2]) were 5.89 and 5.74, respectively.
On to `Cn1nc(NC(=O)N2CC(Oc3cc(F)cc(F)c3)C2)ccc1=O` [Compound 24, 3-(3,5-difluorophenoxy)-N-(1-methyl-6-oxo-1,6-dihydropyridazin-3-yl)azetidine-1-carboxamide], for which the negative logarithm of the IC50 (pIC50) at SCD1 (setting [1]) is 5.96; at SCD5 (setting [2]), 5.54.
On the same counts, the results for `Cn1nc(NC(=O)N2CCC(Cc3cccc(Cl)c3)C2)ccc1=O` (stereo not drawn) [Compound 25, 3-(3-chlorobenzyl)-N-(1-methyl-6-oxo-1,6-dihydropyridazin-3-yl)pyrrolidine-1-carboxamide] are 5.56 and 5.28.
Regarding `Cn1nc(NC(=O)N2CCC(Cc3cc(F)cc(F)c3)C2)ccc1=O` (stereo not drawn) [Compound 26, 3-(3,5-difluorobenzyl)-N-(1-methyl-6-oxo-1,6-dihydropyridazin-3-yl)pyrrolidine-1-carboxamide], the negative logarithm of the IC50 (pIC50) on SCD1 (setting [1]) is 5.38; at SCD5 (setting [2]) it was 5.25.
Regarding `Cn1nc(NC(=O)N2CC[C@@H](Oc3ccc(F)c(F)c3)C2)ccc1=O` [Compound 27, (3R)-3-(3,4-difluorophenoxy)-N-(1-methyl-6-oxo-1,6-dihydropyridazin-3-yl)pyrrolidine-1-carboxamide], the results for the pIC50 at SCD1 (setting [1]) and on SCD5 (setting [2]) were 4.77 and less than 4.35, respectively.
For the compound `Cn1nc(NC(=O)N2CC[C@@H](Oc3cc(F)cc(F)c3)C2)ccc1=O` [Compound 28, (3R)-3-(3,5-difluorophenoxy)-N-(1-methyl-6-oxo-1,6-dihydropyridazin-3-yl)pyrrolidine-1-carboxamide], the pIC50 at SCD1 (setting [1]) is 5.09; at SCD5 (setting [2]), less than 4.35.
For `Cn1nc(NC(=O)N2CC[C@H](Oc3ccc(F)c(F)c3)C2)ccc1=O` [Compound 29, (3S)-3-(3,4-difluorophenoxy)-N-(1-methyl-6-oxo-1,6-dihydropyridazin-3-yl)pyrrolidine-1-carboxamide], the values for the pIC50 at SCD1 (setting [1]) and at SCD5 (setting [2]) were 6.38 and 5.55, respectively.
On to `Cn1nc(NC(=O)N2CC[C@H](Oc3cc(F)cc(F)c3)C2)ccc1=O` [Compound 30, (3S)-3-(3,5-difluorophenoxy)-N-(1-methyl-6-oxo-1,6-dihydropyridazin-3-yl)pyrrolidine-1-carboxamide], for which the pIC50 on SCD1 (setting [1]) was 6.48; on SCD5 (setting [2]), 5.54.
Turning to `Cn1nc(-c2nc(N3CCC(Cc4cccc(F)c4)CC3)no2)ccc1=O` [Compound 114, 6-(3-(4-(3-fluorobenzyl)piperidin-1-yl)-1,2,4-oxadiazol-5-yl)-2-methylpyridazin-3(2H)-one], on SCD5 (setting [2]), the negative logarithm of the IC50 (pIC50) is 8.00.
